In this experiment the target is T1, E-selectin/IgG construct (Homo sapiens, UniProt P16581).
T1 construct: fused on or other part: IgG Fc part (human, since it is captured by goat anti-human Fc antibody), fused on as a capture handle
T1 sequence (P16581 22-175 limits assumed): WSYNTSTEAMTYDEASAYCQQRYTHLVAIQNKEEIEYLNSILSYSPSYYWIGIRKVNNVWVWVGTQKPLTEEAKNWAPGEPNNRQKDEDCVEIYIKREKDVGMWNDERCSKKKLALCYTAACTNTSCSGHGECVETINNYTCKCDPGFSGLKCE
The experiment is described as follows: BIAcore surface plasmon resonance (SPR)-based assay, serial dilutions of the ligand (absolute KD). The settings on record: twofold serial dilutions, 600 s association/600 s dissociation, HBS-P + 20 mm calcium + DMSO 5% v/v, read-out: KD values (absolute binding affinities). The method, then:
The biological evaluation of the E-selectin antagonists was performed by surface plasmon resonance (SPR). For this purpose, an E-selectin/IgG construct was captured onto a BIAcore chip surface bearing covalently linked goat anti-human Fc specific antibody (Biacore Life Sciences, Uppsala, Sweden).
Evaluation of E-Selectin Antagonists with Surface Plasmon Resonance (SPR)-Based Assay
Ten twofold serial dilutions of the ligand were non-randomly injected. The E-selectin antagonists were diluted in running buffer (HBS-P supplemented with […] calcium and DMSO 5% v/v). Antagonist dilutions were injected with a 600 s association time and 600 s dissociation time at a flow rate of 20 μL/min over the reference and the active flow cell. […] In addition, to prevent the presence of residual traces of compound, a blank injection was performed between each injection of ligand dilution. DMSO calibration and double referencing were applied to correct bulk effects and other systematic artifacts (subtraction of reference surface and blank injection).
For orientation: Surface plasmon resonance follows binding to a sensor surface in real time, without labels.

SMILES strings stand for the structures.

A word on the Kd: it is the equilibrium constant for the complex coming apart.

In the case of `CC1CC(C(=O)NCCCN2CCN(CCCn3ccc4cc([N+](=O)[O-])ccc43)CC2)C[C@@H](O[C@@H]2OC(CO)[C@H](O)C(O[C@@H](CC3CCCCC3)C(=O)O)C2OC(=O)c2ccccc2)C1O[C@@H]1OC(C)[C@@H](O)C(O)C1O` (stereo partly drawn) [Product 82, (1R,3R,4R,5S)-3-[2-O-Benzoyl-3-O-((1S)-1-carboxy-2-cyclohexyl-ethyl)-(β-D-galactopyranosyl)oxy]-4-[(α-L-fucopyranosyl)oxy]-5-methyl-N-(3-{1-[3-(5-nitro-1H-indol-1-yl)propyl]piperazin-1-yl}propyl)cyclohexanecarboxamide], the Kd was 110 nM.

The values above are taken from patent US8921328B2, “E-selectin antagonists” (GlycoMimetics, Inc., priority 2010, dated 2014).
